Earlier results, collected in PubChem BioAssay AID1259409 (Chemical Carcinogenesis Research Information System (CCRIS), 2018).

System: rodent chemically induced tumor inhibition, incidence and multiplicity
Experiment: CCRIS tumor inhibitor studies
Conditions: Carcinogen: DIETHYLNITROSAMINE, 55-18-5, Dose [Inhibitor]: 0, Route [Inhibitor]: ORAL, Species: RAT, Strain/Sex: BD6/FEMALE, Promoter: NONE USED

In the case of O=C1O[C@H]([C@@H](O)CO)C(O)=C1O, the “tumour outcome (control, treated, inhibition, significance)” value (3 G/L IN DRINKING WATER BEGINNING 1 D PRIOR TO FIRST CARCINOGEN DOSE AND CONTINUING TO 2 D POST LAST CARCINOGEN DOSE, Target Tissue: Type of Lesion: LIVER: TUMOR, Dose [Carcinogen]: 80 MG/KG BW 1/WK FOR 8 WK) is given as 94%, 90%, 4%, not significant, the “tumour outcome (control, treated, inhibition, significance)” value (3 G/L IN DRINKING WATER FOR DURATION OF STUDY BEGINNING 1 D PRIOR TO FIRST CARCINOGEN DOSE (STUDY DURATION: 6 MO), Target Tissue: Type of Lesion: ESOPHAGUS: TUMOR, Dose [Carcinogen]: 80 MG/KG BW 1/WK FOR 6 WK) is given as 14%, 0%, 100%, not significant and the “tumour outcome (control, treated, inhibition, significance)” value (3 G/L IN DRINKING WATER FOR DURATION OF STUDY BEGINNING 1 D PRIOR TO FIRST CARCINOGEN DOSE (STUDY DURATION: 6 MO), Target Tissue: Type of Lesion: ESOPHAGUS: TUMOR, Dose [Carcinogen]: 80 MG/KG BW 1/WK FOR 10 WK) is given as 35%, 19%, 46%, not significant. The “tumour outcome (control, treated, inhibition, significance)” value (3 G/L IN DRINKING WATER FOR DURATION OF STUDY BEGINNING 1 D PRIOR TO FIRST CARCINOGEN DOSE (STUDY DURATION: 6 MO), Target Tissue: Type of Lesion: LIVER: TUMOR, Dose [Carcinogen]: 80 MG/KG BW 1/WK FOR 6 WK) was 52%, 25%, 52%, not significant, the “tumour outcome (control, treated, inhibition, significance)” value (3 G/L IN DRINKING WATER FOR DURATION OF STUDY BEGINNING 1 D PRIOR TO FIRST CARCINOGEN DOSE (STUDY DURATION: 6 MO), Target Tissue: Type of Lesion: LIVER: TUMOR, Dose [Carcinogen]: 80 MG/KG BW 1/WK FOR 10 WK) was 100%, 96%, 4%, not significant and the “tumour outcome (control, treated, inhibition, significance)” value (3 G/L IN DRINKING WATER FOR DURATION OF STUDY BEGINNING 2 D POST CARCINOGEN TREATMENT (STUDY DURATION: 6 MO), Target Tissue: Type of Lesion: ESOPHAGUS: TUMOR, Dose [Carcinogen]: 80 MG/KG BW 1/WK FOR 10 WK) was 35%, 10%, 71%, not significant. For the same compound, the “tumour outcome (control, treated, inhibition, significance)” value (10 G/L IN DRINKING WATER BEGINNING 1 D PRIOR TO FIRST CARCINOGEN DOSE AND CONTINUING TO 2 D POST LAST CARCINOGEN DOSE, Target Tissue: Type of Lesion: ESOPHAGUS: TUMOR, Dose [Carcinogen]: 80 MG/KG BW 1/WK FOR 8 WK) was 31%, 32%, -3%, not significant, the “tumour outcome (control, treated, inhibition, significance)” value (10 G/L IN DRINKING WATER BEGINNING 1 D PRIOR TO FIRST CARCINOGEN DOSE AND CONTINUING TO 2 D POST LAST CARCINOGEN DOSE, Target Tissue: Type of Lesion: LIVER: TUMOR, Dose [Carcinogen]: 80 MG/KG BW 1/WK FOR 8 WK) was 94%, 95%, -1%, not significant and the “tumour outcome (control, treated, inhibition, significance)” value (10 G/L IN DRINKING WATER FOR DURATION OF STUDY BEGINNING 1 D PRIOR TO FIRST CARCINOGEN DOSE (STUDY DURATION: 6 MO), Target Tissue: Type of Lesion: ESOPHAGUS: TUMOR, Dose [Carcinogen]: 80 MG/KG BW 1/WK FOR 10 WK) was 35%, 28%, 20%, not significant. For the same compound, the “tumour outcome (control, treated, inhibition, significance)” value (10 G/L IN DRINKING WATER FOR DURATION OF STUDY BEGINNING 1 D PRIOR TO FIRST CARCINOGEN DOSE (STUDY DURATION: 6 MO), Target Tissue: Type of Lesion: LIVER: TUMOR, Dose [Carcinogen]: 80 MG/KG BW 1/WK FOR 10 WK) was 100%, 88%, 12%, not significant, the “tumour outcome (control, treated, inhibition, significance)” value (10 G/L IN DRINKING WATER FOR DURATION OF STUDY BEGINNING 2 D POST CARCINOGEN TREATMENT (STUDY DURATION: 6 MO), Target Tissue: Type of Lesion: ESOPHAGUS: TUMOR, Dose [Carcinogen]: 80 MG/KG BW 1/WK FOR 10 WK) was 35%, 33%, 6%, not significant and the “tumour outcome (control, treated, inhibition, significance)” value (10 G/L IN DRINKING WATER FOR DURATION OF STUDY BEGINNING 2 D POST CARCINOGEN TREATMENT (STUDY DURATION: 6 MO), Target Tissue: Type of Lesion: LIVER: TUMOR, Dose [Carcinogen]: 80 MG/KG BW 1/WK FOR 10 WK) was 100%, 100%, 0%, not significant. For the same compound, the “tumour outcome (control, treated, inhibition, significance)” value (15 G/L IN DRINKING WATER BEGINNING 1 D PRIOR TO FIRST CARCINOGEN DOSE AND CONTINUING TO 2 D POST LAST CARCINOGEN DOSE, Target Tissue: Type of Lesion: ESOPHAGUS: TUMOR, Dose [Carcinogen]: 80 MG/KG BW 1/WK FOR 8 WK) was 31%, 26%, 16%, not significant and the “tumour outcome (control, treated, inhibition, significance)” value (15 G/L IN DRINKING WATER BEGINNING 1 D PRIOR TO FIRST CARCINOGEN DOSE AND CONTINUING TO 2 D POST LAST CARCINOGEN DOSE, Target Tissue: Type of Lesion: LIVER: TUMOR, Dose [Carcinogen]: 80 MG/KG BW 1/WK FOR 8 WK) was 94%, 90%, 4%, not significant.
